# Reference: patent US7030134B2, “Pyrazolopyridinyl pyridine and pyrimidine therapeutic compounds” (SmithKline Beecham Corporation, priority 2001, dated 2006)
# Test system: HSV-1
# Experiment: HSV-1 replication in infected Vero 76 cells, DNA hybridization capture assay
# Format: cell-based, herpes simplex virus 1
# Details: Human alphaherpesvirus 1; HSV-1 (MOI=0.001) in Vero 76 cells, 40–48 hours incubation, HSV DNA hybridization chemiluminescence readout; read-out: IC50
# Method: Vero 76 cells were maintained in MEM with Earle's salts, L-glutamine, 8% FBS (Hyclone, A-1111-L) and 100 units/mL Penicillin-100 μg/mL Streptomycin. For assay conditions, FBS was reduced to 2%. Cells are seeded into 96-well tissue culture plates at a density of 5×10^4 cells/well after being incubated for 45 min at 37° C. in the presence of HSV-1 or HSV-2 (MOI=0.001). Test compounds are added to the wells and the plates are incubated at 37° C. for 40–48 hours. Cell lysates are prepared as follows: media was removed and replaced with 150 μL/well 0.2 N NaOH with 1% Igepal CA 630 or NP-40. Plates were incubated up to 14 days at room temperature in a humidified chamber to prevent evaporation.
# For the detection probe, a gel-purified, digoxigenin-labeled, […] PCR fragment of the HSV UL-15 sequence was utilized. PCR conditions included 0.5 μM primers, 180 μM dTTP, 20 μM dUTP-digoxigenin (Boehringer Mannheim 1558706), 200 μM each of dATP, dCTP, and dGTP, 1×PCR Buffer II (Perkin Elmer), 2.5 mM MgCl2, 0.025 units/μL of AmpliTaq Gold polymerase (Perkin Elmer), and 5 ng of gel-purified HSV DNA per 100 μL. Extension conditions were 10 min at 95° C., followed by 30 cycles of 95° C. for 1 min, 55° C. for 30 sec, and 72° C. for 2 min. The amplification was completed with a 10-min incubation at 72° C. Primers were selected to amplify a 728 bp probe spanning a section of the HSV1 UL 15 open reading frame (nucleotides 249–977). Single-stranded transcripts were purified with Promega M13 Wizard kits. The final product was mixed 1:1 with a mixture of 6 M GuSCN, 100 mM EDTA and 200 μg/mL herring sperm DNA and stored at 4° C.
# The capture DNA plasmid (HSV UL13 region in pUC) was linearized by cutting with Xba I, denatured for 15 min at 95° C. and diluted immediately into Reacti-Bind DNA Coating Solution (Pierce, 17250, diluted 1:1 with TE buffer, pH 8) at 1 ng/μL 75 μL/well were added to Corning (#3922 or 9690) white 96-well plates and incubated at room temperature for at least 4 hrs before washing twice with 300 μL/well 0.2×SSC/0.05% Tween-20 (SSC/T buffer). The plates were then incubated overnight at room temperature with 150 μL/well 0.2 N NaOH, 1% IGEPAL and 10 μg/mL herring sperm DNA.
# Twenty-seven (27) μL of cell lysate was combined with 45 μL of hybridization solution (final concentration:3M GuSCN, 50 mM EDTA, 100 μg/ml salmon sperm DNA, 5× Denhardt's solution, 0.25×APE, and 5 ng of the digoxigenin-labeled detection probe). APE is 1.5 M NH4-acetate, 0.15 M NH4H2 phosphate, and 5 mM EDTA adjusted to pH 6.0. Mineral oil (50 μL) was added to prevent evaporation. The hybridization plates were incubated at 95° C. for 10 minutes to denature the DNA, then incubated at 42° C. overnight. The wells were washed 6× with 300 μL/well SSC/T buffer then incubated with 75 μL/well anti-digoxigenin-HRP-conjugated antibody (Boehringer Mannheim 1207733, 1:5000 in TE) for 30 min at room temperature. The wells were washed 6× with 300 μL/well with PBS/0.05% Tween-20 before 75 μL/well SuperSignal LBA substrate (Pierce) was added. The plates were incubated at room temperature for 30 minutes and chemiluminescence was measured in a Wallac Victor reader.
# The following results were obtained for HSV-1.
row,SMILES,IC50
1,"Fc1ccc(-c2nn3c(NC4CCCC4)c(C(F)(F)F)ccc3c2-c2ccnc(N3CCCC3)n2)cc1 [Example 1, N-Cyclopentyl-2-(4-fluorophenyl)-3-[2-(1-pyrrolidinyl)-4-pyrimidinyl)-6-(trifluoromethyl)pyrazolo[1,5-a]pyridin-7-amine]",5300 nM
2,"Fc1ccc(-c2nn3c(NC4CCCC4)c(C(F)(F)F)ccc3c2-c2ccnc(NC3CCCC3)n2)cc1 [Example 2, N-Cyclopentyl-3-[2-(cyclopentylamino)-4-pyrimidinyl]-2-(4-fluorophenyl)-6-(trifluoromethyl)pyrazolo[1,5-a]pyridin-7-amine]",3300 nM
3,"CCOC(=O)c1ccc2c(-c3ccnc(NC4CCCC4)n3)c(-c3ccc(F)cc3)nn2c1NC1CCCC1 [Example 3, Ethyl 7-(cyclopentylamino)-3-[2-(cyclopentylamino)-4-pyrimidinyl]-2-(4-fluorophenyl)pyrazolo[1,5-a]pyridine-6-carboxylate]",6300 nM
4,"O=C(O)c1ccc2c(-c3ccnc(NC4CCCC4)n3)c(-c3ccc(F)cc3)nn2c1NC1CCCC1 [Example 4, 7-(Cyclopentylamino)-3-[2-(cyclopentylamino)-4-pyrimidinyl]-2-(4-fluorophenyl)pyrazolo[1,5-a]pyridine-6-carboxylic acid]",500 nM
5,"O=C(c1ccc2c(-c3ccnc(NC4CCCC4)n3)c(-c3ccc(F)cc3)nn2c1NC1CCCC1)N1CCCC1 [Example 5, N-Cyclopentyl-3-[2-(cyclopentylamino)-4-pyrimidinyl]-2-(4-fluorophenyl)-6-(1-pyrrolidinylcarbonyl)pyrazolo[1,5-a]pyridin-7-amine]",4100 nM
6,"CN(C)C(=O)c1ccc2c(-c3ccnc(NC4CCCC4)n3)c(-c3ccc(F)cc3)nn2c1NC1CCCC1 [Example 6, 7-(Cyclopentylamino)-3-[2-(cyclopentylamino)-4-pyrimidinyl]-2-(4-fluorophenyl)-N,N-dimethylpyrazolo[1,5-a]pyridine-6-carboxamide]",4000 nM
7,"O=C(NO)c1ccc2c(-c3ccnc(NC4CCCC4)n3)c(-c3ccc(F)cc3)nn2c1NC1CCCC1 [Example 7, 7-(Cyclopentylamino)-3-[2-(cyclopentylamino)-4-pyrimidinyl]-2-(4-fluorophenyl)-N-hydroxypyrazolo[1,5-a]pyridine-6-carboxamide]",1000 nM
8,"O=C(NCCN1CCOCC1)c1ccc2c(-c3ccnc(NC4CCCC4)n3)c(-c3ccc(F)cc3)nn2c1NC1CCCC1 [Example 8, 7-(Cyclopentylamino)-3-[2-(cyclopentylamino)-4-pyrimidinyl]-2-(4-fluorophenyl)-N-[2-(4-morpholinyl)ethyl]pyrazolo[1,5-a]pyridine-6-carboxamide]",5000 nM
9,"O=C(NCCCn1ccnc1)c1ccc2c(-c3ccnc(NC4CCCC4)n3)c(-c3ccc(F)cc3)nn2c1NC1CCCC1 [Example 9, 7-(Cyclopentylamino)-3-[2-(cyclopentylamino)-4-pyrimidinyl]-2-(4-fluorophenyl)-N-[3-(1H-imidazol-1-yl)propyl]pyrazolo[1,5-a]pyridine-6-carboxamide]",500 nM
10,"O=C(NC(CO)CO)c1ccc2c(-c3ccnc(NC4CCCC4)n3)c(-c3ccc(F)cc3)nn2c1NC1CCCC1 [Example 10, 7-(Cyclopentylamino)-3-[2-(cyclopentylamino)-4-pyrimidinyl]-2-(4-fluorophenyl)-N-[2-hydroxy-1-(hydroxymethyl)ethyl]pyrazolo[1,5-a]pyridine-6-carboxamide]",4200 nM
11,"OCc1ccc2c(-c3ccnc(NC4CCCC4)n3)c(-c3ccc(F)cc3)nn2c1NC1CCCC1 [Example 11, [7-(Cyclopentylamino)-3-[2-(cyclopentylamino)-4-pyrimidinyl]-2-(4-fluorophenyl)pyrazolo[1,5-a]pyridin-6-yl]methanol]",970 nM
12,"Fc1ccc(-c2nn3c(Cl)cc(Cl)cc3c2-c2ccnc(NC3CCCC3)n2)cc1 [Example 12, N-Cyclopentyl-4-[5,7-dichloro-2-(4-fluorophenyl)pyrazolo[1,5-a]pyridin-3-yl]-2-pyrimidinamine]",7000 nM
13,"Fc1ccc(-c2nn3c(NC4CCCC4)cc(Cl)cc3c2-c2ccnc(NC3CCCC3)n2)cc1 [Example 13, N-{4-[5-Chloro-7-(cyclopentylamino)-2-(4-fluorophenyl)pyrazolo[1,5-a]pyridin-3-yl]-2-pyrimidinyl}-N-cyclopentylamine]",170 nM
14,"Fc1ccc(-c2nn3c(NC4CCCC4)cc(NC4CCCC4)cc3c2-c2ccnc(NC3CCCC3)n2)cc1 [Example 14, N^5,N^7-Dicyclopentyl-3-[2-(cyclopentylamino)-4-pyrimidinyl]-2-(4-fluorophenyl)pyrazolo[1,5-a]pyridine-5,7-diamine]",240 nM
15,"CC(C)Nc1cc(Cl)cc2c(-c3ccnc(NC4CCCC4)n3)c(-c3ccc(F)cc3)nn12 [Example 15, 5-Chloro-3-[2-(cyclopentylamino)-4-pyrimidinyl]-2-(4-fluorophenyl)-N-isopropylpyrazolo[1,5-a]pyridin-7-amine]",1450 nM
16,"CC(C)Nc1cc(NC(C)C)n2nc(-c3ccc(F)cc3)c(-c3ccnc(NC4CCCC4)n3)c2c1 [Example 16, 3-[2-(Cyclopentylamino)-4-pyrimidinyl]-2-(4-fluorophenyl)-N^5,N^7-diisopropylpyrazolo[1,5-a]pyridine-5,7-diamine]",550 nM
17,"COc1ccc(-c2nn3c(Cl)cc(Cl)cc3c2-c2ccnc(NC3CCCC3)n2)cc1 [Example 17, N-Cyclopentyl-4-[5,7-dichloro-2-(4-methoxyphenyl)pyrazolo[1,5-a]pyridin-3-yl]-2-pyrimidinamine]",5200 nM
18,"COc1ccc(-c2nn3c(NC4CCCC4)cc(Cl)cc3c2-c2ccnc(NC3CCCC3)n2)cc1 [Example 18, N-{4-[5-Chloro-7-(cyclopentylamino)-2-(4-methoxyphenyl)pyrazolo-[1,5-a]pyridin-3-yl]-2-pyrimidinyl}-N-cyclopentylamine]",250 nM
19,"Cc1cccc(-c2nn3c(NC4CCCC4)cc(Cl)cc3c2-c2ccnc(NC3CCCC3)n2)c1 [Example 19, 5-Chloro-N-cyclopentyl-3-[2-(cyclopentylamino)pyrimidin-4-yl]-2-(3-methylphenyl)pyrazolo[1,5-a]pyridin-7-amine]",200 nM
20,"Cc1cccc(-c2nn3c(NC4CC4)cc(Cl)cc3c2-c2ccnc(NC3CCCC3)n2)c1 [Example 20, 5-Chloro-3-[2-(cyclopentylamino)pyrimidin-4-yl]-N-cyclopropyl-2-(3-methylphenyl)pyrazolo[1,5-a]pyridin-7-amine]",500 nM
21,"Cc1cccc(-c2nn3c(NC4CCCC4)cc(Cl)cc3c2-c2ccnc(NC3CC3)n2)c1 [Example 21, 5-Chloro-N-cyclopentyl-3-[2-(cyclopropylamino)pyrimidin-4-yl]-2-(3-methylphenyl)pyrazolo[1,5-a]pyridin-7-amine]",600 nM
22,"Fc1ccc(-c2nn3c(NC4CC4)cc(Cl)cc3c2-c2ccnc(NC3CCCC3)n2)cc1 [Example 22, 5-Chloro-3-[2-(cyclopentylamino)-4-pyrimidinyl]-N-cyclopropyl-2-(4-fluorophenyl)pyrazolo[1,5-a]pyridin-7-amine]",200 nM
23,"CN1CCN(c2cc(Cl)cc3c(-c4ccnc(NC5CCCC5)n4)c(-c4ccc(F)cc4)nn23)CC1 [Example 23, 4-[5-Chloro-2-(4-fluorophenyl)-7-(4-methyl-1-piperazinyl)pyrazolo[1,5-a]pyridin-3-yl]-N-cyclopentyl-2-pyrimidinamine]",500 nM
